Experimental findings from ChEMBL document CHEMBL1130217, “Use of a pharmacophore model for the design of EGF-R tyrosine kinase inhibitors: 4-(phenylamino)pyrazolo[3,4-d]pyrimidines” (J Med Chem, 1997) are described below.

Where “and” joins values, the source holds several entries; their conditions need not be identical. Identical values can stand only once.

For test [1], the target named is T1, Proto-oncogene tyrosine-protein kinase Src (Homo sapiens, UniProt P12931). Put plainly: Inhibitory activity against c-Src tyrosine kinase.
Test [2] addresses Protein kinase C alpha type (Homo sapiens, UniProt P17252). Put plainly: Inhibitory activity against protein kinase C alpha […] kinase.
In test [3] the test system is A-431. Put plainly: In vivo activity against A431 xenografts in mice at 12.5 mg/kg ip dose. Type of test: functional. As to conditions: route intraperitoneal.
Test [4] addresses Tyrosine-protein kinase ABL1 (Homo sapiens, UniProt P00519).
Description: Inhibitory activity against v-Abl tyrosine kinase
Test [5] concerns the target T2, Epidermal growth factor receptor (Homo sapiens, UniProt P00533). Put plainly: Inhibition of EGF-stimulated tyrosine phosphorylation in A431 cells.
The test system of test [6] is A-431. Put plainly: In vivo activity against A431 xenografts in mice at 12.5 mg/kg peroral dose. In kind it is functional. The following applies: route oral.
For test [7], the target named is T2, Epidermal growth factor receptor.
Description: Inhibitory activity against epidermal growth factor receptor tyrosine kinase.
The target of test [8] is Platelet-derived growth factor receptor (Homo sapiens, UniProt P09619+P16234). Put plainly: Inhibition of PDGF stimulated tyrosine phosphorylation in BALB/c3t3 cells.
For test [9], the system named is A-431. Put plainly: In vivo activity against A431 xenografts in mice at 50 mg/kg ip dose. In kind it is functional. As to conditions: route intraperitoneal.
The subject of test [10] is Balb/MK. Put plainly: Inhibition of proliferation of EGF-dependent BALB/MK cells. Type of test: functional, cell-based. As to conditions: Mus musculus.
The target in test [11] is T1, Proto-oncogene tyrosine-protein kinase Src. Put plainly: Inhibition of c-Src tyrosine kinase.
In test [12] the target is Cyclin-dependent kinase 1 (Homo sapiens, UniProt P06493). Put plainly: Inhibitory activity against CDK1 Ser/Thr kinase.
In test [13] the test system is Balb/MK. Put plainly: Inhibition of proliferation of EGF-dependent BALB/MK cells. The following applies: Mus musculus. Type of test: functional, cell-based.

Chain of Cyclin-dependent kinase 1 (P06493 whole entry): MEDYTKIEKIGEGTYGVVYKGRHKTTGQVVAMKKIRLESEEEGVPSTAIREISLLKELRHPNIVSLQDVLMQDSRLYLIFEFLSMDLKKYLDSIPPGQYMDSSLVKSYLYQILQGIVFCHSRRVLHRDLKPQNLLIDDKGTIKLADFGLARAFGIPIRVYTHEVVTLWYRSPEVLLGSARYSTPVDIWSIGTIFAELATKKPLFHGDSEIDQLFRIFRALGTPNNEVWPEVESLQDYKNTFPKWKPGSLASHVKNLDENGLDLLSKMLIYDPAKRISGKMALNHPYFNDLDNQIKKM
T2 sequence (P00533 whole entry): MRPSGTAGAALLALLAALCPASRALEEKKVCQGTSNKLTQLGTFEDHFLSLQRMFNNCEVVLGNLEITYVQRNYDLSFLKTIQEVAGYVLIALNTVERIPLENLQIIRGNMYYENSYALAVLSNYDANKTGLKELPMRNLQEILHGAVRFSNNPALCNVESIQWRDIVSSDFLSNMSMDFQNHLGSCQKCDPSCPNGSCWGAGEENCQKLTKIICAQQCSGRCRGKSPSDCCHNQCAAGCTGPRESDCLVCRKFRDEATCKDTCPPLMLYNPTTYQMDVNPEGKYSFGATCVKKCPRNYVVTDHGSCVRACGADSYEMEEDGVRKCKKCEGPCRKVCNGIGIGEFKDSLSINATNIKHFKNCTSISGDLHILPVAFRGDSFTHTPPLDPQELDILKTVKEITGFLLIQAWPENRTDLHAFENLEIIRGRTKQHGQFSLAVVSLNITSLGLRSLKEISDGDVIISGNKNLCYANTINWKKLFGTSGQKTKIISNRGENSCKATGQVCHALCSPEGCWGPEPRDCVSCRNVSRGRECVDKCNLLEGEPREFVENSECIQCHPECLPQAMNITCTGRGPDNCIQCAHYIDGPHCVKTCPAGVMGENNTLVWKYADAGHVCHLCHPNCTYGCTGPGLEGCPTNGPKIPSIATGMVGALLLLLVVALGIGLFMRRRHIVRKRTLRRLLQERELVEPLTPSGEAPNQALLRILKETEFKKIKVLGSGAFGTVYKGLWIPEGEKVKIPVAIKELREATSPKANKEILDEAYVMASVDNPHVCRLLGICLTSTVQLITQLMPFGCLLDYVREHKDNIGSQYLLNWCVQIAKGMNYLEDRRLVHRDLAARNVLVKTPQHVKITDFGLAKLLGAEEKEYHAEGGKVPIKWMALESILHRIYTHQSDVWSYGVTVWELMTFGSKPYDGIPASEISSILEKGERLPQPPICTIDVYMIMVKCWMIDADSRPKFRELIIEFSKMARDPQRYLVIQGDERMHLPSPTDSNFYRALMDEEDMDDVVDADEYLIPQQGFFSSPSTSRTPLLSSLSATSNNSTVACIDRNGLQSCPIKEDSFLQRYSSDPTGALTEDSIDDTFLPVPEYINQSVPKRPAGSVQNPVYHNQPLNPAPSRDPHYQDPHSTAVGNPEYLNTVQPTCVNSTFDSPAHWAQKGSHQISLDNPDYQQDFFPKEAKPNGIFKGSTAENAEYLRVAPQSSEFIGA
Chain of Tyrosine-protein kinase ABL1 (P00519 whole entry, looked up): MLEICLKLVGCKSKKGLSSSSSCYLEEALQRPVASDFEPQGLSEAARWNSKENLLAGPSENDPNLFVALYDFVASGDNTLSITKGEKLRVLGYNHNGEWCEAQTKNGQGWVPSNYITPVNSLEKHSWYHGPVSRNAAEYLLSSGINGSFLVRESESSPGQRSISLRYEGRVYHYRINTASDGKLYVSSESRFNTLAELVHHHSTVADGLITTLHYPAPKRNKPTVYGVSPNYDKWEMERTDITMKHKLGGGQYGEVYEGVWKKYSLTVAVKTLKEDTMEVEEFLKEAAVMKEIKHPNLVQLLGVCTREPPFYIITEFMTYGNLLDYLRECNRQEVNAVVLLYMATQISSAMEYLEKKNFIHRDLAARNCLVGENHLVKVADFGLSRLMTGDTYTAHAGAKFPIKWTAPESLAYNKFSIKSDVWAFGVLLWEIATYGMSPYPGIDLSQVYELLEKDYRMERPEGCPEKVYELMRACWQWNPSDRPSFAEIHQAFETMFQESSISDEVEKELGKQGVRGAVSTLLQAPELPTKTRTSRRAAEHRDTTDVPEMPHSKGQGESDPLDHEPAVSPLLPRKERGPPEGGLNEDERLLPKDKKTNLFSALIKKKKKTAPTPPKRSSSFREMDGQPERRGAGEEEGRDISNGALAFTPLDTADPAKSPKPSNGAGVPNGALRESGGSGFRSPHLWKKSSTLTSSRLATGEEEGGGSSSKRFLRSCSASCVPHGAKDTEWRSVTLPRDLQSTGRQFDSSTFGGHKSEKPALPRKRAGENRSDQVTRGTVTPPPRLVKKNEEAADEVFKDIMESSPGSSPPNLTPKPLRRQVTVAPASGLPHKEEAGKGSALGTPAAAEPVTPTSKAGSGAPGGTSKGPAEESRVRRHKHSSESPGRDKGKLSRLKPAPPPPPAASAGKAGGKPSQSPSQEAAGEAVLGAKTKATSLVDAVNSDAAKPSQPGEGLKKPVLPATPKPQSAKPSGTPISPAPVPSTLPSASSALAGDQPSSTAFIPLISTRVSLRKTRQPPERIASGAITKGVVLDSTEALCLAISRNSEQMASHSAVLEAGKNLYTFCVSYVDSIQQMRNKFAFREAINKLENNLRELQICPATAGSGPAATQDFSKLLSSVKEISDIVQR
T1 sequence (P12931 2-536 limits assumed): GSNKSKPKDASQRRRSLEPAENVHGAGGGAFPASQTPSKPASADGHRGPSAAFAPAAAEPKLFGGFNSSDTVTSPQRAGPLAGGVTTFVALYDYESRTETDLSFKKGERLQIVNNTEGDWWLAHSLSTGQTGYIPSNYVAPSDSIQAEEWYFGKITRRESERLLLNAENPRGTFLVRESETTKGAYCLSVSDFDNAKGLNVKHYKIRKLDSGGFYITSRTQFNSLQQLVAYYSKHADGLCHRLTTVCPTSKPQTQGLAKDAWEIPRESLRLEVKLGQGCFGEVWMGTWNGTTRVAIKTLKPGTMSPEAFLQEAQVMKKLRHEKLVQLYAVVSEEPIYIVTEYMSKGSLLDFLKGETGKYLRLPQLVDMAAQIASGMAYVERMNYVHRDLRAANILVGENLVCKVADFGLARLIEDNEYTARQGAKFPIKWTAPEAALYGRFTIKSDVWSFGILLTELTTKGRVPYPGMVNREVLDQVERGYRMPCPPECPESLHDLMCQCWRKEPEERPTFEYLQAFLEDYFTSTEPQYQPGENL

Consider `Clc1cccc(Nc2ncnc3n[nH]c(Nc4cccc(Cl)c4)c23)c1`, for which the IC50 is 5300 nM in test [1]; 5900 nM in test [2]; 1980 nM in test [4]; 250 nM in test [5]; 330 nM in test [7]; 10000 nM in test [8]. Also, in the test on Balb/MK [10], the IC50 was 1400 nM. Besides, the T/C was 46% in the test on A-431 [3]; 41% with A-431 [6]; 25% and 31% in the test with A-431 [9].

For the compound `Clc1cccc(Nc2[nH]cnc3nnc(-c4ccccc4)c2-3)c1`, the IC50 is above 10000 nM in test [11]; above 10000 nM in test [2]; 3760 nM in [4]; 30 nM in [5]; 19 nM in [7]; above 10000 nM in test [8]. Moreover, the IC50 in test [12] was determined as 2800 nM; in the test on Balb/MK [10], 820 nM.

With `Nc1ncnc2c1c(-c1ccccc1)nn2-c1ccccc1`, the concentration for half-maximal inhibition (IC50) is above 100000 nM in test [2]; above 10000 nM in [4]; 800 nM in test [7]; above 10000 nM in [8]; above 50000 nM in the test on Balb/MK [13].

In the case of `Clc1cccc(Nc2[nH]nc3ncnc(Nc4cccc(Br)c4)c23)c1`, the IC50 was above 10000 nM in test [11]; 3800 nM in test [2]; 1360 nM in test [4]; below 800 nM in test [5]; 130 nM in test [7]; above 10000 nM in test [8]. Moreover, half-maximal inhibition in the test with Balb/MK [10] (IC50) required 1430 nM.

Regarding `Cc1cccc(Nc2ncnc3[nH]nc(Nc4cccc(Cl)c4)c23)c1`, the IC50 in [11] was 8080 nM; in [2], 4700 nM; in [4], 1650 nM; in test [5], 150 nM; in test [7], 130 nM; in test [8] it was above 10000 nM. In addition, the IC50 in the test with Balb/MK [10] was 2700 nM. Also, the T/C is 27% in the test on A-431 [3]; 44% in the test on A-431 [6]; 21% and 23% with A-431 [9].

`Clc1cccc(Nc2[nH]nc3ncnc(NCc4ccccc4)c23)c1`: the IC50 is above 10000 nM in [1]; 4500 nM in test [2]; above 10000 nM in test [4]; 1500 nM in test [5]; 870 nM in test [7]; above 10000 nM in test [8]. For the same compound, the values for the IC50 (in test [12]; in the test on Balb/MK [10]) were 9000 nM and 49900 nM, respectively.

With `COc1ccc(Nc2[nH]nc3ncnc(Nc4cccc(Cl)c4)c23)cc1`, the IC50 is above 10000 nM in [1]; 19000 nM in test [2]; above 10000 nM in test [4]; 1500 nM in test [5]; 30 nM in test [7]; 10000 nM in [8]. Also, the IC50 in test [12] came to 5800 nM; in the test on Balb/MK [10] it was 1030 nM.

In the case of `CC(C)(C)OC(=O)Nc1ccc(Nc2[nH]nc3ncnc(Nc4cccc(Cl)c4)c23)cc1`, the 50% inhibitory concentration (IC50) in test [1] is above 10000 nM; in [2], above 10000 nM; in test [4], above 10000 nM; in [5], above 100000 nM; in test [7] it was above 10000 nM; in [8] it was above 10000 nM. Further, the half-inhibitory concentration (IC50) in test [12] was 57000 nM; in the test on Balb/MK [10], above 10000 nM.

Turning to `Oc1cccc(Nc2[nH]nc3ncnc(Nc4cccc(Cl)c4)c23)c1`, the half-maximal inhibitory concentration (IC50) in [1] was 220 nM; in test [2], 560 nM; in [4], 260 nM; in test [5], 4 nM; in test [7] it was 1 nM; in test [8], above 10000 nM. The IC50 in [12] worked out at 3000 nM; with Balb/MK [10] it was 460 nM.

`Clc1cccc(Nc2[nH]cnc3nnc(NCc4ccccc4)c2-3)c1`: the IC50 in test [1] is above 10000 nM; in test [2], 10000 nM; in test [4] it was 6600 nM; in [5], 3 nM; in test [7], 7 nM; in test [8] it was above 10000 nM. Further, the IC50 in test [12] came to 7400 nM; in the test with Balb/MK [10], 300 nM.

The term IC50 denotes the concentration that inhibits the measured activity by half. In general, T/C refers to the ratio of treated to control.
